Experimental data: patent publication US20030114445A1, “N3-substituted 6-anilinopyrimidines and methods to treat-Gram-positive bacterial and mycoplasmal infections” (priority 2001, published 2003)
In brackets after ≈: the same amount, converted by molar mass. Read-outs that look alike come from different tables or passages of the source.

Assays:
S.aureus (Smith) = test: Inhibition of bacterial growth on agar plates (MIC); assay type: cell-based; conditions: Staphylococcus aureus, 37° C., 24 hours
Procedure: (§1) Each compound is assayed against a panel of Bacillus, Enterococcus and Staphylococcus, and a Gram-negative bacterium Escherichia coli as negative control, grown in appropriate plate media solidified with 1.3% agar-agar. Stock solutions of the compounds in dimethylsulfoxide or water, depending on solubility, are added to sterile medium at a temperature of 60° C. […] One tenth mL of diluted bacteria containing 500-1000 colony-forming units (CFU) are plated and spread, and the plates incubated at 37° C. for 24 hours. MIC (minimum inhibitory concentration) is equivalent to the lowest concentration at which growth, i.e. colony formation, is not observed.

E. fecalis = test: as above; assay type: cell-based; conditions: 37° C., 24 hours
Procedure: as §1

B. subtilis = test: as above; assay type: cell-based; conditions: Bacillus subtilis, 37° C., 24 hours
Procedure: as §1

E. fecium = test: as above; assay type: cell-based; conditions: 37° C., 24 hours
Procedure: as §1

B.subtilis pol IIIC = B.subtilis pol IIIC (Bacillus subtilis, UniProt P13267); test: biochemical
Sequence of B.subtilis pol IIIC (P13267 whole entry): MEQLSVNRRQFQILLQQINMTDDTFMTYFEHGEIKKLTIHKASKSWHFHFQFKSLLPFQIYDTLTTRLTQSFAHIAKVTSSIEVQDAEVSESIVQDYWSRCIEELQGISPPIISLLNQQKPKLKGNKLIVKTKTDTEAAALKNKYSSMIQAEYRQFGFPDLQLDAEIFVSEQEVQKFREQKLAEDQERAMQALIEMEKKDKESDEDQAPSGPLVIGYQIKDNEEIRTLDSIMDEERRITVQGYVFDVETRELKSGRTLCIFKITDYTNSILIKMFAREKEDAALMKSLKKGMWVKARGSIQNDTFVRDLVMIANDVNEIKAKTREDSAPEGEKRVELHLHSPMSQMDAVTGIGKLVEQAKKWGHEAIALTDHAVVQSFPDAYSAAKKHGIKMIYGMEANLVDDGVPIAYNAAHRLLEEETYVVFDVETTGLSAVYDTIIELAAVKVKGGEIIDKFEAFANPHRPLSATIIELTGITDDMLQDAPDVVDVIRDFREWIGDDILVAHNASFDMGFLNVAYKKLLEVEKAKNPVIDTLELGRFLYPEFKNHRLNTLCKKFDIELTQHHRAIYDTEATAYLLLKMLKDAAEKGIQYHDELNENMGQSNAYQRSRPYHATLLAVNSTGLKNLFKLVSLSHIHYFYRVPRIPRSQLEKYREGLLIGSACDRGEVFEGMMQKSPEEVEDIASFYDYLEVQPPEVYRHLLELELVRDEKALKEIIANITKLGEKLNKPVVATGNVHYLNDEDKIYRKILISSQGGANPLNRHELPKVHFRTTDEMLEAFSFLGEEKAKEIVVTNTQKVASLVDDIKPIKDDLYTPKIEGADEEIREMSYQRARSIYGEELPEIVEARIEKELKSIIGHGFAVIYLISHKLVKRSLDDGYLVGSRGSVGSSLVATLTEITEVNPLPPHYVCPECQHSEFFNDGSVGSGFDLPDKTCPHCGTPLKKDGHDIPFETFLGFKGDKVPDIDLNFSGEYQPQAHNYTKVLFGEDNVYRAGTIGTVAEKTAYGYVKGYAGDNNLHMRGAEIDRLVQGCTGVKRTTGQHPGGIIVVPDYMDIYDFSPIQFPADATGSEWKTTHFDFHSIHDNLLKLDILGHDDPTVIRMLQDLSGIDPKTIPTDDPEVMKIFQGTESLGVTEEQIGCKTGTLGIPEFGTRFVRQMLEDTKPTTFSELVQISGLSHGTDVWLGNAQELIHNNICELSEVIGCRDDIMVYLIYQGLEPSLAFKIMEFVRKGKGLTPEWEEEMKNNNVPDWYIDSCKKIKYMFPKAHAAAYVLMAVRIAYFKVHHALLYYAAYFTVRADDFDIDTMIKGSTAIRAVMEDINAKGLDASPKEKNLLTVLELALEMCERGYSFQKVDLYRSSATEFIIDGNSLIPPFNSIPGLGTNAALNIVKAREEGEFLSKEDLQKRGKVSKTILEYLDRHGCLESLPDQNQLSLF
Procedure: DNA pol activity was assayed as described in Barnes et al., Nuc. Acids Res., 6:1203-19 (1979), using activated “nicked” calf-thymus DNA as template primer, 10 pM [^3H-methyl]-dTTP as the labelled dNTP substrate, and dATP, dCTP, and dGTP at 25 μM each.
Inhibitory activity of the compounds is determined by measuring the ability of the agent to inhibit enzyme-catalyzed incorporation of [^3H]-dTMP into nicked calf thymus DNA in the absence of the competitor dGTP or dATP (“truncated assay”) (see G. E. Wright and N. C. Brown, Inhibition of Bacillus subtilis DNA Polymerase III by Arylhydrazinopyrimidines: Novel Properties of 2-Thiouracil Derivatives, Biochim. Biophys. Acta 432:37-48 (1976)). Purified pol IIIC is added to a buffered solution containing Mg^2+, DTT, glycerol, nicked calf thymus DNA, saturating concentrations of dATP, dCTP, dTTP and [^3H]-dTTP. Reaction mixtures are incubated at 30° C. for 10 minutes, quenched and filtered, and radioactivity in the acid-insoluble material measured by scintillation counting. Experiments are done in triplicate. Inhibitors are assayed by addition of several dilutions of a stock solution of inhibitor (DMSO or water, depending on solubility) before enzyme addition. […] The truncated assay, i.e. exclusion of the competitive substrate dGTP or dATP, depending upon whether the compound is a uracil derivative or an isocytosine derivative, respectively, allows for the direct determination of apparent inhibitor constants (K,) in this assay system.

[1] = truncated assay, apparent inhibitor constant, read-out: K1 B.subtilis pol IIIC

| Structure (SMILES) | MIC (S.aureus (Smith)) [µg/mL] | MIC (E. fecalis) [µg/mL] | MIC (B. subtilis) [µg/mL] | MIC (E. fecium) [µg/mL] | Ki (B.subtilis pol IIIC) [nM] | Ki (B.subtilis pol IIIC; [1]) [nM] |
| --- | --- | --- | --- | --- | --- | --- |
| CCc1cc(Nc2cc(=O)n(CCOCCOCc3ccccc3)c(=O)[nH]2)ccc1C [Compound 5, 3-[2-(2-Benzyloxyethoxy)ethyl]-6-(3-ethyl-4-methylanilino)uracil] | 5 (≈ 11.8 µM) | 5 (≈ 11.8 µM) | < 1.25 | 10 (≈ 23.6 µM) | 56 |  |
| CCOC(=O)CCCCn1c(=O)cc(Nc2ccc(C)c(CC)c2)[nH]c1=O [Compound 6, 3-(4-Ethoxycarbonylbutyl)-6-(3-ethyl-4-methylanilino)uracil] | 2.5 (≈ 6.69 µM) | 5 (≈ 13.4 µM) | < 1.25 | < 1.25 | 76 |  |
| CCc1cc(Nc2cc(=O)n(C/C=C/C(=O)OC)c(=O)[nH]2)ccc1C [Compound 7, 3-[3-(Methoxycarbonyl)-2-propenyl]-6-(3-ethyl-4-methylanilino)uracil] | 10 (≈ 29.1 µM) | 20 (≈ 58.2 µM) | 2.5 (≈ 7.28 µM) | 5 (≈ 14.6 µM) | 320 |  |
| CCc1cc(Nc2cc(=O)n(CCCC(C)=O)c(=O)[nH]2)ccc1C [Compound 8, 3-(4-Oxopentyl)-6-(3-ethyl-4-methylanilino)uracil] | 5 (≈ 15.2 µM) | 5 (≈ 15.2 µM) | < 1.25 | 5 (≈ 15.2 µM) | 61 |  |
| CCOC(=O)CCCn1c(=O)cc(Nc2ccc(C)c(CC)c2)[nH]c1=O [Compound 10, 3-[3-(Ethoxycarbonyl)propyl]-6-(3-ethyl-4-methylanilino)uracil] | 2.5 (≈ 6.96 µM) | 5 (≈ 13.9 µM) | < 1.25 | 2.5 (≈ 6.96 µM) | 100 |  |
| CCc1cc(Nc2cc(=O)n(CC(=O)N(CC)CC)c(=O)[nH]2)ccc1C [Compound 11, 3-[(N,N-Diethylaminocarbonyl)methyl]-6-(3-ethyl-4-methylanilino)uracil] | 10 (≈ 27.9 µM) | 20 (≈ 55.8 µM) | 2.5 (≈ 6.97 µM) | 20 (≈ 55.8 µM) | 450 |  |
| CCc1cc(Nc2cc(=O)n(CCOCCOC)c(=O)[nH]2)ccc1C [Compound 12, 3-[2-(2-Methoxyethoxy)ethyl]-6-(3-ethyl-4-methylanilino)uracil] | 2.5 (≈ 7.2 µM) | 5 (≈ 14.4 µM) | 2.5 (≈ 7.2 µM) | 5 (≈ 14.4 µM) | 45 |  |
| CCc1cc(Nc2cc(=O)n(CC#CCO)c(=O)[nH]2)ccc1C [Compound 13, 3-(4-Hydoxy-2-butynyl)-6-(3-ethyl-4-methylanilino)uracil] | 5 (≈ 16 µM) | 10 (≈ 31.9 µM) | 5 (≈ 16 µM) | 10 (≈ 31.9 µM) | 68 |  |
| CCc1cc(Nc2cc(=O)n(CCN(CC)CC)c(=O)[nH]2)ccc1C [Compound 14, 3-[2-(N,N-diethylamino)ethyl]-6-(3-ethyl-4-methylanilino)uracil] | 20 (≈ 58.1 µM) | 20 (≈ 58.1 µM) | 10 (≈ 29 µM) | 20 (≈ 58.1 µM) | 530 |  |
| CCc1cc(Nc2cc(=O)n(CC(C)=O)c(=O)[nH]2)ccc1C [Compound 15, 3-(2-Oxopropyl)-6-(3-ethyl-4-methylanilino)uracil] | 10 (≈ 33.2 µM) | 20 (≈ 66.4 µM) | 2.5 (≈ 8.3 µM) | 10 (≈ 33.2 µM) | 303 |  |
| CCc1cc(Nc2cc(=O)n(CCNS(C)(=O)=O)c(=O)[nH]2)ccc1C [Compound 16, 3-[2-(Methanesulfonylamino)ethyl]-6-(3-ethyl-4-methylanilino)uracil] | 10 (≈ 27.3 µM) | 20 (≈ 54.6 µM) | 5 (≈ 13.6 µM) | 10 (≈ 27.3 µM) | 290 |  |
| CCc1cc(Nc2cc(=O)n(CCN3CCOCC3)c(=O)[nH]2)ccc1C [Compound 17, 3-[2-(N-morpholino)ethyl]-6-(3-ethyl-4-methylanilino)uracil] | 5 (≈ 13.9 µM) | 5 (≈ 13.9 µM) | < 1.25 | 2.5 (≈ 6.97 µM) | 90 |  |
| CCc1cc(Nc2cc(=O)n(CCCCCCCCO)c(=O)[nH]2)ccc1C [Compound 18, 3-(8-Hydroxyoctyl)-6-(3-ethyl-4-methylanilino)uracil] | 2.5 (≈ 6.69 µM) | 2.5 (≈ 6.69 µM) | 1.25 (≈ 3.35 µM) | 2.5 (≈ 6.69 µM) | 26 |  |
| CCc1cc(Nc2cc(=O)n(CCCC#N)c(=O)[nH]2)ccc1C [Compound 19, 3-(3-Cyanopropyl)-6-(3-ethyl-4-methylanilino)uracil] | 2.5 (≈ 8 µM) | 5 (≈ 16 µM) | 2.5 (≈ 8 µM) | 5 (≈ 16 µM) | 140 |  |
| CCc1cc(Nc2cc(=O)n(CCCCC#N)c(=O)[nH]2)ccc1C [Compound 20, 3-(4-Cyanobutyl)-6-(3-ethyl-4-methylanilino)uracil] | 2.5 (≈ 7.66 µM) | 2.5 (≈ 7.66 µM) | 2.5 (≈ 7.66 µM) | 5 (≈ 15.3 µM) | 94 |  |
| CCc1cc(Nc2cc(=O)n(CCOCCOCCO)c(=O)[nH]2)ccc1C [Compound 21, 3-{2-[2-Hydroxyethoxy-(2-ethoxy)]ethyl}-6-(3-ethyl-4-methylanilino)uracil] | 10 (≈ 26.5 µM) | 10 (≈ 26.5 µM) | 2.5 (≈ 6.62 µM) | 10 (≈ 26.5 µM) | 87 |  |
| CCc1cc(Nc2cc(=O)n(CCCCOC(C)=O)c(=O)[nH]2)ccc1C [Compound 22, 3-(4-Acetoxybutyl)-6-(3-ethyl-4-methylanilino)uracil] | 2.5 (≈ 6.96 µM) | 5 (≈ 13.9 µM) | 1.25 (≈ 3.48 µM) | 5 (≈ 13.9 µM) | 58 |  |
| CCc1cc(Nc2cc(=O)n(CCCC(O)CO)c(=O)[nH]2)ccc1C (stereo not drawn) [Compound 23, 3-(4,5-Dihydroxypentyl)-6-(3-ethyl-4-methylanilino)uracil] | 20 (≈ 57.6 µM) | 20 (≈ 57.6 µM) | 10 (≈ 28.8 µM) | 20 (≈ 57.6 µM) | 96 |  |
| CCc1cc(Nc2cc(=O)n(CCCN3CCOCC3)c(=O)[nH]2)ccc1C [Compound 24, 3-[3-(N-Morpholino)propyl]-6-(3-ethyl-4-methylanilino)uracil] | 10 (≈ 26.8 µM) | 10 (≈ 26.8 µM) | 2.5 (≈ 6.71 µM) | 5 (≈ 13.4 µM) | 110 |  |
| CCc1cc(Nc2cc(=O)n(CC(C)CO)c(=O)[nH]2)ccc1C (stereo not drawn) [Compound 25, 3-(3-Hydroxy-2-methylpropyl)-6-(3-ethyl-4-methylanilino)uracil] | 5 (≈ 15.8 µM) | 5 (≈ 15.8 µM) | < 1.25 | 2.5 (≈ 7.88 µM) | 110 |  |
| CCc1cc(Nc2cc(=O)n(CCCCCCO)c(=O)[nH]2)ccc1C [Compound 27, 3-(6-Hydroxyhexyl)-6-(3-ethyl-4-methylanilino)uracil] | 2.5 (≈ 7.24 µM) | 2.5 (≈ 7.24 µM) | < 1.25 | 5 (≈ 14.5 µM) | 49 |  |
| CCc1cc(Nc2cc(=O)n(CCCC(=O)O)c(=O)[nH]2)ccc1C [Compound 31, 3-(3-Carboxypropyl)-6-(3-ethyl-4-methylanilino)uracil] | 10 (≈ 30.2 µM) | > 20 | > 20 | 20 (≈ 60.4 µM) | 57 |  |
| CCc1cc(Nc2cc(=O)n(C/C=C/CO)c(=O)[nH]2)ccc1C [Compound 32, 3-(4-Hydroxy-2-butenyl)-6-(3-ethyl-4-methylanilino)uracil] | 5 (≈ 15.9 µM) | 5 (≈ 15.9 µM) | 1.25 (≈ 3.96 µM) | 2.5 (≈ 7.93 µM) | 51 |  |
| CCc1cc(Nc2cc(=O)n(CCCCN3CCSCC3)c(=O)[nH]2)ccc1C [Compound 36, 3-[(N-Thiomorpholino)butyl]-6-(3-ethyl-4-methylanilino)uracil] | 10 (≈ 24.8 µM) | 5 (≈ 12.4 µM) | 5 (≈ 12.4 µM) | 5 (≈ 12.4 µM) |  | 68 |
| CCc1cc(Nc2cc(=O)n(CCCCN3CCC(O)(c4ccc(Cl)c(C(F)(F)F)c4)CC3)c(=O)[nH]2)ccc1C [Compound 37, 3{[4-(3-Trifluoromethylphenyl-4-chloro-)-4-hydroxypiperidino]butyl}-6-(3-ethyl-4-methylanilino)uracil] | 2.5 (≈ 4.32 µM) | 2.5 (≈ 4.32 µM) | 1.25 (≈ 2.16 µM) | 2.5 (≈ 4.32 µM) |  | 32 |
| CCc1cc(Nc2cc(=O)n(CCCCN3CCC(O)(c4ccc(Cl)cc4)CC3)c(=O)[nH]2)ccc1C [Compound 38, 3{[4-(4-Chlorophenyl)-4-hydroxypiperidino]butyl}-6-(3-ethyl-4-methylanilino)uracil] | 5 (≈ 9.78 µM) | 5 (≈ 9.78 µM) | 5 (≈ 9.78 µM) | 5 (≈ 9.78 µM) |  | 25 |
| CCc1cc(Nc2cc(=O)n(CCN3CCN(C(=O)c4ccccc4)CC3)c(=O)[nH]2)ccc1C [Compound 39, 3-[2-(4-Benzoylpiperazino)ethyl]-6-(3-ethyl-4-methylanilino)uracil] | 10 (≈ 21.7 µM) | 10 (≈ 21.7 µM) | 2.5 (≈ 5.42 µM) | 5 (≈ 10.8 µM) | 77 |  |
